The results in this text go back to patent US11357857B2, “Excipient compounds for protein processing” (COMERA LIFE SCIENCES, INC., priority 2014, dated 2022).

Several values for one entry are separate records, joined by “and”; a condition that tells them apart may be missing. Equal entries are not always repeated. Structures can show the parent of a compound that is named as a salt. Where two headings read alike, the source gives them in different places.

The nature of series [1]: Caffeine solubility testing with co-solutes at ambient temperature (Examples 32-33). The conditions noted are these: for Observation of caffeine dissolution: caffeine 80 mg/mL. On the procedure:
Prepared solutions were used either neat or diluted with deionized water.
A small magnetic stir bar was added to the vial, and the solution was allowed to mix vigorously on a stir plate for about 10 minutes.

Series [2] relates to bovine gamma globulin (BGG). The conditions noted are these: excipient 50 mg/mL.
Series [3] deals with bovine gamma globulin (BGG). The experiment in a line: Normalized viscosity of 280 mg/mL BGG in 20 mM histidine with local anesthetic excipients (Example 21). The format is physicochemical. The settings on record: no B. The text has this:
The first excipient compound, Excipient A, was selected from a group of compounds having local anesthetic properties.

Series [4] concerns bovine gamma globulin (BGG). In words: Normalized viscosity of 280 mg/mL BGG in 50 mM histidine HCl with primary/secondary excipient combinations (Example 10). The format is physicochemical. Here is the method:
The primary excipient compounds were selected from compounds having both anionic and aromatic functionality, as listed below in Table 5. The secondary excipient compounds were selected from compounds having either nonionic or cationic charge at pH 6 and either imidazoline or benzene rings, as listed below in Table 5. Formulations of these excipients were prepared in 50 mM histidine hydrochloride buffer solution for viscosity measurement in the following way. […] The individual primary or secondary excipient compounds were then dissolved in 50 mM histidine HCl.

Series [5] concerns bovine gamma globulin (BGG). Here is the method:
Each buffer solution contained different excipient or combination of excipients as described in the table below. The viscosity of the solutions was measured as described in previous examples.

In series [6] the test system is bovine gamma globulin (BGG). The settings on record: 280 mg/mL BGG, 20 mM histidine pH 6, 25° C.; Excipient A caffeine 15 mg/mL; no Excipient B.
Series [7] has as its system bovine gamma globulin (BGG). In words: Viscosity of 280 mg/mL BGG in 20 mM histidine pH 6 with different molar caffeine concentrations, microVisc (Example 31). Format: physicochemical. On the procedure:
The formulations for this Example were prepared in 20 mM histidine buffer for viscosity measurement in the following way.
The viscometer was equipped with an A-10 chip having a channel depth of 100 microns, and was operated at a shear rate of 250 l/s and 25° C. To measure viscosity, the test formulation was loaded into the viscometer, taking care to remove all air bubbles from the pipet. The pipet containing the loaded sample formulation was placed in the instrument and allowed to incubate at the measurement temperature for about five minutes. The instrument was then run until the channel was fully equilibrated with the test fluid, indicated by a stable viscosity reading, and then the viscosity recorded in centipoise.

Another series deals with bevacizumab (AVASTIN®). In words: Viscosity of concentrated AVASTIN with and without caffeine, microVisc (Example 40). The settings on record: for % Viscosity Reduction from Excipient: 10 mg/mL caffeine.
In series [8] the test system is bovine gamma globulin (BGG). The experiment in a line: Viscosity of 280 mg/mL BGG in histidine buffer pH 6 versus amount of arginine or caffeine added (Example 24). The format is physicochemical.
Series [9] deals with T1, PEGylated BSA (1 PEG chain per BSA molecule) (Bos taurus, UniProt P02769).
T1 construct: purchased Aldrich A7906
The experiment in a line: Viscosity of PEGylated BSA with 1 PEG chain per BSA with excipient, microVisc (Example 17). The format is physicochemical. On the procedure:
To a beaker was added 200 mL of a phosphate buffered saline (Aldrich Cat. #P4417) and 4 g of BSA (Aldrich Cat. #A7906) and mixed with a magnetic bar. Next 400 mg of methoxy polyethylene glycol maleimide, MW=5,000, (Aldrich Cat. #63187) was added. The reaction mixture was allowed to react overnight at room temperature. The following day, 20 drops of HCl 0.1 M were added to stop the reaction. […] The reaction mixture was placed in an Amicon centrifuge tube with a molecular weight cutoff (MWCO) of 30,000 and concentrated to a few milliliters. Next the sample was diluted 20 times with a histidine buffer, 50 mM at a pH of approximately 6, followed by concentrating until a high viscosity fluid was obtained.
The viscometer measurements were completed at ambient temperature.

The target of a further series is PEGylated lysozyme (Gallus gallus, UniProt P00698). The settings on record: excipient 20 mg/mL.
Series [10] has as its system bovine gamma globulin (BGG). The experiment in a line: Normalized viscosity of 280 mg/mL BGG in distilled water with excipient combinations (Example 11). The format is physicochemical. The settings on record: primary excipient 20 mg/mL, no secondary. On the procedure: The primary excipient compounds were selected from compounds having both anionic and aromatic functionality, as listed below in Table 6. The secondary excipient compounds were selected from compounds having either nonionic or cationic charge at pH 6 and either imidazoline or benzene rings, as listed below in Table 6. Formulations of these excipients were prepared in distilled water for viscosity measurement in the following way. […].

Series [11] deals with bovine gamma globulin (BGG). In words: Normalized viscosity of 280 mg/mL BGG in 20 mM histidine with dimethyl sulfone (Example 42). Format: physicochemical. Here is the method:
Such formulations were prepared in 20 mM histidine buffer for viscosity measurement in the following way. […].

T1 sequence (P02769 25-607): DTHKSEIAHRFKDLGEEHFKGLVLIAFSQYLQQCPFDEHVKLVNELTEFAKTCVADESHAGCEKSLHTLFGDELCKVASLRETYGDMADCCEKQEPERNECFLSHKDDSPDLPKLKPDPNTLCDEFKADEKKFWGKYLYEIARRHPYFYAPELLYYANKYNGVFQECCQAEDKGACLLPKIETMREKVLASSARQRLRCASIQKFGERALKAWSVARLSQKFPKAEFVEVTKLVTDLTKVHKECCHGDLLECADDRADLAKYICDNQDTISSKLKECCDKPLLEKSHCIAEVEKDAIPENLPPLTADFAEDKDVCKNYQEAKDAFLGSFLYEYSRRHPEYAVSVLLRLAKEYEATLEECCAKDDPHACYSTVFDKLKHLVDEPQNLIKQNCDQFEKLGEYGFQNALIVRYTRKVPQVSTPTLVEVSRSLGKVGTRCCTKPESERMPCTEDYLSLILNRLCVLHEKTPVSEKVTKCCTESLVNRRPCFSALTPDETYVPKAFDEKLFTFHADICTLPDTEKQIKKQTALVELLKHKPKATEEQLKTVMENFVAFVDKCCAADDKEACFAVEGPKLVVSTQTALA
PEGylated lysozyme, sequence (P00698 19-147): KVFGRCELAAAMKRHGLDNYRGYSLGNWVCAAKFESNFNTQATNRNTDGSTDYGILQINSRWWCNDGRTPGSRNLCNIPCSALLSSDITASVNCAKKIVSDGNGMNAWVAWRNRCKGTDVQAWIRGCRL
Method for PEGylated lysozyme: The solution was mixed by gently shaking and the viscosity was measured by a RheoSense microVisc equipped with an A10 channel (100 micron depth) at a shear rate of 500 sec−1. The viscometer measurements were completed at ambient temperature.
Method for bevacizumab (AVASTIN®): The sample was concentrated in Amicon Ultra 4 centrifugal concentrator tubes (MWCO 30 kDa) at 3500 rpm. […] AVASTIN® stock solution was diluted with the excipient buffer then concentrated in Amicon Ultra 15 centrifugal concentrator tubes (MWCO 30 kDa). The concentration of the excipient samples was determined by Bradford assay and the viscosity was measured using the RheoSense microVisc.

As for `CCN(CC)CCOC(=O)c1ccc(N)cc1` [Procaine HCl], the “Observation of caffeine dissolution” value in [1] (co-solute 30 mg/mL) and in [1] (co-solute 40 mg/mL) was “DND” throughout. Besides, in [1] (co-solute in water, ambient temperature (about 23 C)), the “Dissolution of caffeine enabled relative to reported solubility limit” value was “at least about four times”. In addition, in [2], the “Viscosity Reduction” value was found to be 47%. For the same molecule, in series [3] (excipient A 40 mg/mL), the “Normalized Viscosity” value is given as 0.64.

Take `Cn1c(=O)c2c(ncn2C)n(C)c1=O` [Caffeine]: the “Normalized Viscosity” value in [4] (no primary, secondary excipient 10 mg/mL) amounted to 0.73; in series [6], 0.77; in [7] (caffeine 5 mM) it was 0.81; in [7] (caffeine 10 mM), 0.84; in series [7] (caffeine 20 mM), 0.92; in series [7] (caffeine 30 mM), 0.76. Besides, the “Normalized Viscosity” value turned out to be 0.78 in [7] (caffeine 40 mM); 0.78 in [7] (caffeine 50 mM); 0.69 in series [7] (caffeine 60 mM); 0.60 in [7] (caffeine 70 mM); 0.60 in [7] (caffeine 80 mM). The Viscosity in series [5] (caffeine 10 mg/ml) is on record as 87.9 cP; in [7] (caffeine 5 mM), 67 cP; in series [7] (caffeine 10 mM), 70 cP; in series [7] (caffeine 20 mM) it was 77 cP; in series [7] (caffeine 30 mM), 63 cP; in series [7] (caffeine 40 mM), 65 cP. Besides, the Viscosity came to 65 cP in [7] (caffeine 50 mM); 57 cP in [7] (caffeine 60 mM); 50 cP in series [7] (caffeine 70 mM); 50 cP in series [7] (caffeine 80 mM); 60 cP in [8] (caffeine added 10 mg/mL); 62 cP in [8] (caffeine added 15 mg/mL). The same molecule came in with a Viscosity in series [8] (caffeine added 22 mg/mL) of 50 cP. For the same molecule, the “Viscosity Reduction” value in [5] (caffeine 10 mg/ml) is 33%; in series [8] (caffeine added 10 mg/mL), 31%; in series [8] (caffeine added 15 mg/mL), 23%; in series [8] (caffeine added 22 mg/mL), 45%. In addition, the “Viscosity with 10 mg/mL added caffeine excipient” value in the series with bevacizumab (AVASTIN®) (concentration 190 mg/mL) came to 13 cP. Further, the entries for the “% Viscosity Reduction from Excipient” value in the series with bevacizumab (AVASTIN®) (concentration 190 mg/mL) and in the series with bevacizumab (AVASTIN®) (concentration 266 mg/mL) were 36% and 62%, respectively.

Regarding Alpha-Cyclodextrin sulfated Na salt, in series [9] (excipient 20 mg/mL), the Viscosity was 151.5 cP and the “Viscosity Reduction” value is 34%.

Turning to `CCN(CC)CC(=O)Nc1c(C)cccc1C` [Lidocaine], the results for the “Normalized Viscosity” value in series [3] (excipient A 23 mg/mL) and in [3] (excipient A 45 mg/mL) were 0.74 and 0.73, respectively.

Regarding `N=C(N)NCCC[C@H](N)C(=O)O` [Arginine], the Viscosity in [5] (arginine 25 mg/ml) is 76.7 cP; in series [8] (arginine added 53 mg/mL) it was 40.9 cP; in series [8] (arginine added 79 mg/mL), 46.1 cP; in [8] (arginine added 105 mg/mL), 47.8 cP; in series [8] (arginine added 132 mg/mL), 49.0 cP; in [8] (arginine added 158 mg/mL), 48.0 cP. Besides, the Viscosity in series [8] (arginine added 174 mg/mL) turned out to be 50.3 cP; in series [8] (arginine added 211 mg/mL), 51.4 cP. The “Viscosity Reduction” value in series [5] (arginine 25 mg/ml) is 41%; in series [8] (arginine added 53 mg/mL) it was 48%; in series [8] (arginine added 79 mg/mL), 42%; in series [8] (arginine added 105 mg/mL), 40%; in series [8] (arginine added 132 mg/mL), 38%; in series [8] (arginine added 158 mg/mL), 39%. Besides, the figures for the Viscosity Reduction in series [8] (arginine added 174 mg/mL) and in [8] (arginine added 211 mg/mL) were 36% and 35%, respectively.

For `CC(=O)[O-].[K+]` [K acetate, potassium acetate], on PEGylated lysozyme, the Viscosity worked out at 22.6 cP and the “Viscosity Reduction” value is 8%. In [9] (excipient 40 mg/mL), the Viscosity came to 89.5 cP and the “Viscosity Reduction” value turned out to be 60%.

Regarding `O=C(O)c1ccccc1O` [Salicylic Acid], the “Normalized Viscosity” value is given as 0.79 in series [4] (primary excipient 30 mg/mL, no secondary) and 0.96 in series [10].

Turning to `O=S(=O)(O)c1ccc(O)cc1` [4-hydroxybenzene sulfonic acid], the “Normalized Viscosity” value in series [4] (primary excipient 31 mg/mL, no secondary) was determined as 0.59.

`CS(C)(=O)=O` [Dimethyl sulfone]: the Normalized Viscosity in series [11] (dimethyl sulfone 15 mg/mL) was 0.92; in series [11] (dimethyl sulfone 30 mg/mL), 0.71 and 0.72; in series [11] (dimethyl sulfone 50 mg/mL), 0.71.
